# Measured values: US7740463B2, “Pressurised metered dose inhalers (MDI)” (Chiesi Farmaceutici S.p.A., priority 1998, dated 2010)
# Several values for one entry are separate records, joined by “and”; a condition that tells them apart may be missing. Equal values may be shown once.
# Tests used:
# [1] = Chemical stability of dexbudesonide HFA 134a composition of Example 4 in epoxy-phenol lacquered aluminium cans (HPLC, epimeric distribution); format: physicochemical
# Protocol: A composition containing 48 mg of dexbudesonide (200 μg/dose), 15% (w/w) ethanol, 1.3% (w/w) glycerol in HFA 134a to 12 ml can was distributed in epoxy-phenol lacquered aluminium cans and was stored at 40° C.
# [2] = Chemical stability of dexbudesonide HFA 227 compositions of Example 5 in anodised aluminium cans (HPLC, epimeric distribution); format: physicochemical; settings: for % Residual dexbudesonide / % residual dexbudesonide relative to t = 0: HFA 227, anodised aluminium cans
# Protocol: Compositions containing 7.2, 12, 16.8 mg of dexbudesonide (corresponding to 30, 50 and 70 μg/dose respectively), ethanol, 0.9 (w/w) PEG 400 or isopropyl myristate (IPM) in HFA 227 to 12 ml can was distributed in aluminium anodised cans and was stored 70 days at 50° C.
# [3] = Fine particle dose of dexbudesonide solution compositions, Andersen Cascade Impactor; format: physicochemical; settings: for MMAD: low volatility compound 0.9% (w/w); for FPF: Fine particle dose/Delivered dose × 100; for Delivered dose: ex actuator; for FPD: particles lower than 4.7 μm, average of 10 shots; for Metered dose: sum of delivered dose and actuator residue
# Protocol: The fine particle dose (FPD: weight of particles having an aerodynamic diameter lower than 4.7 μm) of dexbudesonide solution compositions in HFA 134a or HFA 227, prepared following the examples 4 and 5, was determined.
# The experiments were performed using the Andersen Cascade Impactor and the data obtained are average values from 10 shots.
# The FPD gives a direct measure of the mass of particles within the specified size range and is closely related to the efficacy of the product.
# [4] = Chemical stability of flunisolide HFA 134a composition of Example 7 in cans of different types (percent drug remaining, HPLC); format: physicochemical
# Protocol: A composition containing 60 mg of flunisolide (250 μg/dose), […], 1% (w/w) glycerol in HFA 134a to 12 ml/can was distributed in anodised aluminium, glass cans or in cans having different internal coatings and were stored for 41 days at 50° C.
# [5] = as above; format: physicochemical; remark: listed apart in the source
# [6] = flunisolide/ethanol/HFA compositions of WO 95/17195, Table 8 of that application; cited from earlier work
# [7] = Effect of different acids on chemical stability of the composition of Example 1 in epoxy-phenol resin (4) coated cans; format: physicochemical; settings: epoxy-phenol (4) coated cans
# Protocol: The effect of different acids on the chemical stability of the composition of Example 1 was studied.
# The stability of the compositions was tested after 1, 2 and 5 months storage at 40° C. in epoxy-phenol resin (4) coated cans.
# [8] = metered dose 30 μg, ethanol 5% (w/w), IPM 0.9% (w/w), t = 70 days at 50° C.
# [9] = metered dose 30 μg, ethanol 5% (w/w), PEG 400 0.9% (w/w), t = 70 days at 50° C.
# [10] = metered dose 50 μg, ethanol 8% (w/w), IPM 0.9% (w/w), t = 70 days at 50° C.
# [11] = metered dose 50 μg, ethanol 8% (w/w), PEG 400 0.9% (w/w), t = 70 days at 50° C.
# [12] = metered dose 70 μg, ethanol 7% (w/w), IPM 0.9% (w/w), t = 70 days at 50° C.
# [13] = metered dose 70 μg, ethanol 7% (w/w), PEG 400 0.9% (w/w), t = 70 days at 50° C.
# [14] = HFA 134a, 60 μg/shot, ethanol 8% (w/w), IPM 0.9% (w/w)
# [15] = HFA 227, 63 μg/shot, ethanol 7% (w/w), IPM 0.9% (w/w)
# [16] = HFA 227, 63 μg/shot, ethanol 7% (w/w), PEG 400 0.9% (w/w)
# [17] = can: Anodised aluminum, t = 41 days at 50° C.
# [18] = can: Epoxy phenol resin (2), t = 41 days at 50° C.
# [19] = can: Epoxy phenol resin (3), t = 41 days at 50° C.
# [20] = can: Anodised aluminum, t = 93 days (50° C. per title)
# [21] = can: Epoxy phenol resin (1), t = 41 days at 50° C.
# [22] = can: Epoxy phenol resin (1), t = 93 days (50° C. per title)
# [23] = can: Epoxy phenol resin (2), t = 93 days (50° C. per title)
# [24] = can: Epoxy phenol resin (3), t = 93 days (50° C. per title)
smiles,measurement,setting,value
CCC[C@@H]1O[C@@H]2C[C@H]3[C@@H]4CCC5=CC(=O)C=C[C@]5(C)[C@H]4[C@@H](O)C[C@]3(C)[C@]2(C(=O)CO)O1 [dexbudesonide],percent drug remaining,"[1]; 200 μg/dose, 15% (w/w) ethanol, 1.3% (w/w) glycerol, HFA 134a, 8 months at 40° C., average of two tests",95.4%
same,epimeric distribution,"[1]; Example 4 composition, stored at 40° C.",no transfer from the 22R to the 22S epimer
same,epimeric distribution,"[2]; Example 5 compositions, anodised aluminium cans, 70 days at 50° C.",no transfer from the 22R to the 22S epimer
same,% Residual dexbudesonide,"[2]; metered dose 30 μg, ethanol 5% (w/w), IPM 0.9% (w/w), t = 0 days",98.1%
same,% Residual dexbudesonide,[2]; [8],96.8%
same,% residual dexbudesonide relative to t = 0,[2]; [8],(98.7) %
same,% Residual dexbudesonide,"[2]; metered dose 30 μg, ethanol 5% (w/w), PEG 400 0.9% (w/w), t = 0 days",95.8%
same,% Residual dexbudesonide,[2]; [9],95.8%
same,% residual dexbudesonide relative to t = 0,[2]; [9],(100) %
same,% Residual dexbudesonide,"[2]; metered dose 50 μg, ethanol 8% (w/w), IPM 0.9% (w/w), t = 0 days",98.0%
same,% Residual dexbudesonide,[2]; [10],99.4%
same,% residual dexbudesonide relative to t = 0,[2]; [10],(101) %
same,% Residual dexbudesonide,"[2]; metered dose 50 μg, ethanol 8% (w/w), PEG 400 0.9% (w/w), t = 0 days",99.0%
same,% Residual dexbudesonide,[2]; [11],98.0%
same,% residual dexbudesonide relative to t = 0,[2]; [11],(98.9) %
same,% Residual dexbudesonide,"[2]; metered dose 70 μg, ethanol 7% (w/w), IPM 0.9% (w/w), t = 0 days",100.4%
same,% Residual dexbudesonide,[2]; [12],96.3%
same,% residual dexbudesonide relative to t = 0,[2]; [12],(96.0) %
same,% Residual dexbudesonide,"[2]; metered dose 70 μg, ethanol 7% (w/w), PEG 400 0.9% (w/w), t = 0 days",95.7%
same,% Residual dexbudesonide,[2]; [13],93.75%
same,% residual dexbudesonide relative to t = 0,[2]; [13],(98.0) %
same,MMAD,"[3]; HFA 134a solution formulation, 14.4 mg/can (60 μg/shot), ethanol 8% (w/w)",2.0 μm
same,FPF,[3]; [14],73.6% and 77.4%
same,Delivered dose,[3]; [14],54.2 µg and 50.9 µg
same,FPD,[3]; [14],39.9 µg and 39.4 µg
same,Metered dose,[3]; [14],57.9 µg and 53.2 µg
same,FPF,[3]; [15],75.5%
same,Delivered dose,[3]; [15],59.7 µg
same,FPD,[3]; [15],45.0 µg
same,Metered dose,[3]; [15],63.9 µg
same,FPF,[3]; [16],78.9%
same,Delivered dose,[3]; [16],61.5 µg
same,FPD,[3]; [16],48.5 µg
same,Metered dose,[3]; [16],65.5 µg
same,MMAD,"[3]; HFA 227 solution formulation, 15.12 mg/can (63 μg/shot), ethanol 7% (w/w)",2.0 μm
CC1(C)O[C@@H]2C[C@H]3[C@@H]4C[C@H](F)C5=CC(=O)C=C[C@]5(C)[C@H]4[C@@H](O)C[C@]3(C)[C@]2(C(=O)CO)O1 [flunisolide],% RESIDUAL FLUNISOLIDE,"[4]; can: Anodised aluminum, t = 0",101.6%
same,% RESIDUAL FLUNISOLIDE,[4]; [17],100.4%
same,% RESIDUAL FLUNISOLIDE RELATIVE TO t = 0,[4]; [17],(98.8) %
same,% RESIDUAL FLUNISOLIDE,"[4]; can: Epoxy phenol resin (1), t = 0",98.4%
same,% RESIDUAL FLUNISOLIDE,"[4]; can: Epoxy phenol resin (2), t = 0",101.9%
same,% RESIDUAL FLUNISOLIDE,[4]; [18],99.7%
same,% RESIDUAL FLUNISOLIDE RELATIVE TO t = 0,[4]; [18],(97.8) %
same,% RESIDUAL FLUNISOLIDE,[4]; [19],99.2%
same,% RESIDUAL FLUNISOLIDE,[5]; [20],100.7%
same,% RESIDUAL FLUNISOLIDE RELATIVE TO t = 0,[5]; [20],(99.1) %
same,% RESIDUAL FLUNISOLIDE,[5]; [21],99.2%
same,% RESIDUAL FLUNISOLIDE RELATIVE TO t = 0,[5]; [21],(101) %
same,% RESIDUAL FLUNISOLIDE,[5]; [22],101.4%
same,% RESIDUAL FLUNISOLIDE RELATIVE TO t = 0,[5]; [22],(103) %
same,% RESIDUAL FLUNISOLIDE,[5]; [23],101.9%
same,% RESIDUAL FLUNISOLIDE RELATIVE TO t = 0,[5]; [23],(100) %
same,% RESIDUAL FLUNISOLIDE,"[5]; can: Epoxy phenol resin (3), t = 0",101.7%
same,% RESIDUAL FLUNISOLIDE RELATIVE TO t = 0,[5]; [19],(97.5) %
same,% RESIDUAL FLUNISOLIDE,[5]; [24],101.2%
same,% RESIDUAL FLUNISOLIDE RELATIVE TO t = 0,[5]; [24],(99.6) %
same,% RESIDUAL FLUNISOLIDE,"[5]; can: Glass type III, t = 93 days (50° C. per title)",97.5%
same,decomposition in containers,[6],decomposes only in plastic cans
CC(C)[N+]1(C)[C@@H]2CC[C@H]1CC(OC(=O)C(CO)c1ccccc1)C2.[Br-] (some centres unmarked) [ipratropium bromide],% RESIDUAL IPBr,"[7]; acid: Ascorbic, t = 0",119%
same,% RESIDUAL IPBr,"[7]; acid: Ascorbic, t = 1 month at 40° C.",113%
same,% RESIDUAL IPBr,"[7]; acid: Ascorbic, t = 2 months at 40° C.",112%
same,% RESIDUAL IPBr,"[7]; acid: Ascorbic, t = 5 months at 40° C.",110%
same,% RESIDUAL IPBr,"[7]; acid: Citric (0.07% w/w), t = 1 month at 40° C.",98%
same,% RESIDUAL IPBr,"[7]; acid: Citric (0.3% w/w), t = 2 months at 40° C.",100%
same,% RESIDUAL IPBr,"[7]; acid: Citric (0.6% w/w), t = 0",98%
same,% RESIDUAL IPBr,"[7]; acid: Citric (0.6% w/w), t = 1 month at 40° C.",98%
same,% RESIDUAL IPBr,"[7]; acid: Hydrochloric (4 μl-1 N), t = 0",101%
same,% RESIDUAL IPBr,"[7]; acid: Hydrochloric (4 μl-1 N), t = 1 month at 40° C.",100%
same,% RESIDUAL IPBr,"[7]; acid: Hydrochloric (4 μl-1 N), t = 2 months at 40° C.",104%
same,% RESIDUAL IPBr,"[7]; acid: Hydrochloric (10 μl-1 N), t = 0",101%
same,% RESIDUAL IPBr,"[7]; acid: Hydrochloric (10 μl-1 N), t = 1 month at 40° C.",98%
same,% RESIDUAL IPBr,"[7]; acid: Hydrochloric (10 μl-1 N), t = 2 months at 40° C.",98%
same,% RESIDUAL IPBr,"[7]; acid: Hydrochloric (20 μl-1 N), t = 0",100%
same,% RESIDUAL IPBr,"[7]; acid: Hydrochloric (20 μl-1 N), t = 2 months at 40° C.",98%
same,% RESIDUAL IPBr,"[7]; acid: None, t = 2 months at 40° C.",98%
